# Entries after “also recorded” stand apart in the source; their conditions may differ. Where a SMILES comes first, the peptide text is derived from it. Bridges are numbered along the chain shown (N, C = ends).
# Experiments:
# [1] = cited from earlier work
# From the text: Transient receptor potential vanilloid 1 (TRPV1) ion channel is a polymodal nociceptor broadly expressed in sensory neurons involved in pain sensation, making this channel a target for analgesia. Since TRPV1 deletion in rodents led to significant tolerance to noxious heat hyperalgesia[3],[4], antagonists of TRPV1 became the first choice to develop analgesic agents targeting TRPV1 in the past decades. Pharmacological inhibition TRPV1 indeed effectively alleviates dental, rectal, and thermal pain[5],[6]. However, TRPV1 also plays critical roles in thermoregulation, thus its antagonists suf ... || Positive allosteric modulator (PAM) is defined as a ligand without direct activation of its target, but potentiates the activity of agonists of targets. PAMs of TRPV1 have shown significant analgesic effect by inducing calcium overloading in previous reports[11],[12]. For instance, MRS1477 is developed as a small molecule PAM of TRPV1[13]. […] However, as both De1 and De3 bind to the intracell ... || TRPV1 plays a critical role in the pathogenesis of chronic pain[30]–[33], and has been a long-pursued target for pain management. To circumvent the side effects of the first-generation channel inhibitors occurred in clinical trials, alternative strategies such as the PAMs of TRRV1 have been developed.
# TRPV1 [2] = conditions: cited from earlier work
# From the text: Positive allosteric modulator (PAM) is defined as a ligand without direct activation of its target, but potentiates the activity of agonists of targets. PAMs of TRPV1 have shown significant analgesic effect by inducing calcium overloading in previous reports[11],[12]. For instance, MRS1477 is developed as a small molecule PAM of TRPV1[13]. […] For instance, noxious heat, proton, and divalent cations induce conformational changes in the outer pore to activate TRPV1[27]–[29].
# TRPA1 = assay: Selectivity: AITC-evoked TRPA1 current; assay type: cell-based, human; conditions: 30 μM AITC; normalized to 1 mM AITC; mean ± S.E.M., n = 4
# Protocol: (§1) HEK293T cells are cultured using DMEM medium contained 10% FBS in a cell incubator with 5% CO2 at 37 °C. Plasmids of murine TRPV1, TRPV2, TRPV3 and human TRPA1 are labeled with YFP or GFP as indicators for subsequent electrophysiological recordings. cDNA constructs of ion channels were transiently transfected with Lipofectamine 2000 (Invitrogen, Carlsbad, CA). And one or 2 days after transient transfection, electrophysiological recordings were performed.
# (§2) Patch-clamp recordings were carried out with a HEKA EPC10 amplifier controlled by PatchMaster software (HEKA). Patch pipettes were prepared from borosilicate glass and fire-polished to resistance of 3–8 MΩ by P-97 puller. Both bath solution and pipette solution contained 130 mM NaCl, 10 mM glucose, 0.2 mM EDTA, and 3 mM HEPES and were adjusted to pH 7.2–7.4 with NaOH for whole-cell recordings. For solution with pH lower than 6.5, HEPES was replaced by MES. Whole-cell recordings were performed at ±80 mV. Current was sampled at 10 kHz and filtered at 2.9 kHz. All recordings were performed at room temperature (25 °C). A gravity-driven system (RSC-200, Bio-Logic) with freely rotated perfusion tubes was used for the perfusion of peptide or ligands. Bath and ligand solution were delivered through separate tubes to minimize the mixing of solutions. Patch pipette holding cells was placed in front of the perfusion tube outlet for perfusion.
# TRPV1 [3] = biological target: T1, TRPV1 (Mus musculus, UniProt Q704Y3); assay: Whole-cell patch clamp: potentiation of capsaicin-evoked TRPV1 current; assay type: cell-based, murine
# Protocol: as §1
# as §2, with “Patch pipette holding cells was placed in front of the perfusion tube outlet for perfusion.” left out
# (§3) Data from whole-cell recordings were analyzed in Igor Pro version 5.05 (WaveMatrix). […]
# TRPV1 [4] = biological target: T1, TRPV1; assay: Whole-cell patch clamp: potentiation of proton-evoked TRPV1 current; assay type: cell-based, murine; conditions: pH 6.5; Hill fit; n = 4 cells; read-out: EC50, enhancement of proton-induced current
# Protocol: as §1
# as §2, with “Patch pipette holding cells was placed in front of the perfusion tube outlet for perfusion.” left out
# as §3
# TRPV1 [5] = biological target: T1, TRPV1; assay: Calcium imaging, HEK293T cells expressing TRPV1; assay type: cell-based, murine; conditions: 30 μM s-RhTx with 10 nM capsaicin; n = 12
# Protocol: as §1
# (§4) Calcium imaging assay was performed as previously described[12],[20]. In brief, HEK293T cells expressing TRPV1 were incubated with 2 μM Fluo-4 AM (Thermo Fisher) in 2 mM calcium Ringer’s solution (140 mM NaCl, 5 mM KCl, 2 mM MgCl2, 2 mM CaCl2, 10 mM glucose, and 10 mM HEPES, pH 7.4). Fluorescence images of HEK293T cells were acquired with Nikon Eclipse Ti2 microscope with optiMOS charge-coupled device camera controlled by the Ocular Software (Molecular Devices). Fluo-4 AM was excited at 500/20-nm excitation, and fluorescence emission was detected at 535/30-nm. Fluorescence images were analyzed with Fiji software and Office Excel.
# TRPV1 E652D [6] = biological target: T2, TRPV1 E652D (Mus musculus, UniProt Q704Y3, E652D); assay: Calcium imaging, TRPV1 mutant E652D; assay type: cell-based, murine; conditions: 30 μM s-RhTx with 10 nM capsaicin; n = 45
# Protocol: (§5) Site mutations of mTRPV1 were generated by Fast Mutagenesis Kit (Takara Bio). Primers used to generate point mutations are summarized in Supplementary Table 1. All mutations were confirmed by sequencing.
# as §4
# TRPV1 E652D [7] = biological target: T2, TRPV1 E652D; assay: Mutant cycle analysis: concentration response, Kd and L on TRPV1 E652D; assay type: cell-based, murine; conditions: mean ± S.E.M.
# Protocol: In this analysis, the ligand binding (represented by Kd) and subsequent conformational changes leading to channel opening (represented by L) were separately quantified. Kd and L were calculated by the formulae: EC50 = Kd/(1 + L) and Po max = L/(1 + L), when Po max and EC50 are experimentally measured[20],[21]. Previously we have successfully performed this analysis to establish the interactions between peptide toxin BmP01 and TRPV1[16].
# as §5
# Patch-clamp recordings were carried out with a HEKA EPC10 amplifier controlled by PatchMaster software (HEKA). Patch pipettes were prepared from borosilicate glass and fire-polished to resistance of 3–8 MΩ by P-97 puller. Both bath solution and pipette solution contained 130 mM NaCl, 10 mM glucose, 0.2 mM EDTA, and 3 mM HEPES and were adjusted to pH 7.2–7.4 with NaOH for whole-cell recordings. […]
# as §3
# The strength of coupling was determined by the coupling energy (kT multiplied by LnΩ, where k is the Boltzmann constant and T is temperature in Kelvin). LnΩ was calculated by the following equation: LnΩ=LnKd_1⋅Kd_4/Kd_2⋅Kd_3
# [8] = tested on: Trpv1+ nerve fibers, Trpv1-Ai32 / Trpv1-Ai14 mice; assay: Trpv1+ intra-epidermal nerve fiber (IENF) quantification; assay type: in vivo; conditions: folded s-RhTx without capsaicin; words
# Protocol: (§6) Adult C57 BL/6 mice (male, 8–10 weeks) and Trpv1^-/- mice (Jax Strain #:003770) were used for behavioral studies. To specifically label Trpv1-positive nerve fibers in skin tissues, Trpv1-Cre mice[36] (Jax Strain #:017769) were crossed with floxed reporter lines (Ai32, Jax Strain #:012569 or Ai14, Jax Strain #:007914) to get the transgenic reporter (Trpv1-Ai32 or Trpv1-Ai14) mice. Mice were group-housed at 22–24 °C and relative humidity of 30–70% under the 12 h light-dark cycle with access to standard food and water ad libitum. All the animal procedures were approved by the Institutional Animal Care & Use Committee (IACUC) of Zhejiang University.
# (§7) After appropriate survival times, the mice were deeply anesthetized with isoflurane and perfused through the ascending aorta with PBS, followed by 4% PFA. After the perfusion, the hind paw glabrous skins and L4-L6 DRGs were removed and postfixed in the same fixative overnight. Skin sections (30 μm) and DRG sections (10 μm) were cut in a cryostat. Sections were blocked with 2% BSA for 2 h at room temperature and then incubated with Deep-red 640/660-conjugated Nissl (1:1000) at room temperature for 2 h. Sections were then incubated with DAPI (1:10,000, Vector Laboratories, catalog H-1200) for 5 min, followed by three times washing with PBS for 5 min each. The stained and mounted sections were examined with a Nikon fluorescence microscope, and images were captured with a charge-coupled device Spot camera. For quantification analysis, at least three sections from each mouse were selected, and at least three mice were analyzed in each group. To evaluate Trpv1-positive nerve fiber degeneration, transgenic reporter (Trpv1-Ai32 or Trpv1-Ai14) mice were used for the quantification of intra-epidermal nerve fiber (IENF) density. IENF density was calculated by counting the number of IENF crossing the epidermis-dermis boundary within unit length.
# [9] = tested on: DRG neurons, Trpv1-Ai14 mice; assay: Trpv1+ and Nissl+ neurons in DRGs; assay type: in vivo; conditions: for Trpv1+ neurons (% of all neurons): sheet S5e
# Protocol: as §6, §7
# [10] = local delivery; words
# Protocol: 20 μl of CFA was injected first to induce a chronic pain model. […] All data were shown as mean ± S.E.M. Source data are available as a Source Data file.
# Complete Freund’s adjuvant (CFA) was injected at a volume of 20 μl to induce chronic inflammatory pain.
# [11] = assay type: in vivo, mice; conditions: i.p. 10 mg kg-1 peptide with capsaicin 1 mg kg-1; n = 6; words
# From the text: (§8) Figure R3. […] (A) Statistical […]
# (§9) results of hind paw thickness in mice.
# (§10) N.S., not significant, two-way ANOVA. n = 9 mice in each group. (B) H&E staining showing the results of cell […]
# (§11) N.S., not significant, n = 3 mice in each group. Scale bar, 50 μm. All data were shown as mean ± s.e.m. […]
# (§12) different experiment should be performed.
# (§13) Response: We thank the reviewer for the insightful comments. We also agree with the reviewer that the local injections of s-RhTx in this study are not likely to change body temperature. To test […]
# (§14) 1) in mice and measured body temperature. […]
# (§15) n = 6 mice in each group. No significance in two-way ANOVA. All data were shown as mean ± s.e.m. […]
# mouse hind paw skin = assay type: in vivo, mice; conditions: 1 week; folded s-RhTx with capsaicin; n = 3; words
# From the text: as §8, §9, §10, §11, §12, §13, §14, §15
# mouse hind paw = assay type: in vivo, mice; conditions: 2 μg folded s-RhTx with capsaicin 200 ng; n = 9; words
# From the text: as §8, §9, §10, §11, §12, §13, §14, §15
# TRPV2 = assay: Selectivity: 2-APB-evoked TRPV2 current; assay type: cell-based, murine; conditions: 500 μM 2-APB; normalized to 4 mM 2-APB; mean ± S.E.M., n = 4
# Protocol: as §1, §2
# TRPV3 = assay: Selectivity: 2-APB-evoked TRPV3 current; assay type: cell-based, murine; conditions: 30 μM 2-APB; normalized to 1 mM 2-APB; mean ± S.E.M., n = 4
# Protocol: as §1, §2
# T1 sequence (Q704Y3 whole entry): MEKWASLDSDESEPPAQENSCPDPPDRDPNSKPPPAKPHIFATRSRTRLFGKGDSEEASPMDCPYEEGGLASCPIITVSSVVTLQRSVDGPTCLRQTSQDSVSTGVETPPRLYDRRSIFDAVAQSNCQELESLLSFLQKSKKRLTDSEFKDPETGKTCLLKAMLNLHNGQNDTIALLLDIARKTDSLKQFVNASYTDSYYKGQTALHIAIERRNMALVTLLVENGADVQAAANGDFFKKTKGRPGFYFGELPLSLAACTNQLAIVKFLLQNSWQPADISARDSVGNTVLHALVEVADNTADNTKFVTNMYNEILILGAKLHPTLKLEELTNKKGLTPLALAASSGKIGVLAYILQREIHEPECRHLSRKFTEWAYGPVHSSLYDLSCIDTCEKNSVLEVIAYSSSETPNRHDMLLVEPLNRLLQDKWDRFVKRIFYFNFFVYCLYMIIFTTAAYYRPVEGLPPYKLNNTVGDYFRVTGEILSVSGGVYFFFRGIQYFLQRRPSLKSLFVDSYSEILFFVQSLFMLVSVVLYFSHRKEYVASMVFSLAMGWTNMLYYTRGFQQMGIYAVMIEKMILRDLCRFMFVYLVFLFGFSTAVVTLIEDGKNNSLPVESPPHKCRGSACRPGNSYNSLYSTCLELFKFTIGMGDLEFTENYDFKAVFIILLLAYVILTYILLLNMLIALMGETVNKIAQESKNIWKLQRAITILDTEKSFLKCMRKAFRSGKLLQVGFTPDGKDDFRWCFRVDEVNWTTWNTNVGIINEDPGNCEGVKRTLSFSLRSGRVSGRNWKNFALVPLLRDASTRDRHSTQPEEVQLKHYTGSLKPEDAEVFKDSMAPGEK
# T2 sequence (Q704Y3 whole entry E652D): as the sequence (Q704Y3 whole entry) above, with E652D counted along it
smiles,measurement,setting,value
CCOC(=O)C1=C(c2ccccc2)NC(C)=C(C(=O)SCCOC)C1CC (centres unmarked) [MRS1477],duration of analgesic effects,[1],about two weeks
same,TRPV1 activation by capsaicin,TRPV1 [2],enhances TRPV1 activation by capsaicin
C=CCN=C=S [AITC],"normalized TRPA1 current, AITC alone",TRPA1,41.06 ± 12.85%
"CC[C@H](C)[C@H](NC(=O)[C@@H]1CSSC[C@@H]2NC(=O)[C@H]([C@@H](C)O)NC(=O)[C@H](C(C)C)NC(=O)CNC(=O)[C@H](CC(N)=O)NC(=O)[C@@H](NC(=O)[C@@H]3CCCN3)CSSC[C@H](NC(=O)[C@H](CCCNC(=N)N)NC(=O)[C@H](Cc3ccc(O)cc3)NC(=O)CNC(=O)[C@H](CO)NC(=O)[C@@H]3CCCN3C2=O)C(=O)N[C@@H](CO)C(=O)N[C@@H]([C@@H](C)CC)C(=O)N[C@@H](C(C)C)C(=O)N[C@@H](CC(=O)O)C(=O)N[C@@H](CCCCN)C(=O)N[C@@H](CCC(N)=O)C(=O)N1)C(=O)N[C@@H](CCCCN)C(=O)N[C@@H](CCCCN)C(=O)N[C@@H](CCC(=O)O)C(=O)O [s-RhTx] (H-PCNGVTCPSGYRCSIVDKQCIKKE-OH; disulfide 2-13, 7-20)",EC50,TRPV1 [3],890 ± 450 nM
same,EC50,TRPV1 [4],1580 ± 500 nM
same,"enhancement of intracellular calcium, WT TRPV1",TRPV1 [5],56.09 ± 8.62%
same,"increase of intracellular calcium fluorescence, E652D",TRPV1 E652D [6],47.5 ± 0.05%
same,EC50,TRPV1 E652D [7],7160 ± 1420 nM
same,"IENF degeneration, peptide alone",[8],did not induce
same,Trpv1+ neuron proportion and total neuron density in DRGs,"[9]; co-injection with capsaicin, 1 and 4 weeks, words, listed as folded s-RhTx",did not change at 1 week; also recorded: not significantly changed
same,Trpv1+ neurons (% of all neurons),"[9]; 1 week, Mouse # 1",33.4%
same,Trpv1+ neurons (% of all neurons),"[9]; 1 week, Mouse # 2",33.4%
same,Trpv1+ neurons (% of all neurons),"[9]; 1 week, Mouse # 3",35.2%
same,Trpv1+ neurons (% of all neurons),"[9]; 4 weeks, Mouse # 1",37.1%
same,Trpv1+ neurons (% of all neurons),"[9]; 4 weeks, Mouse # 2",32.1%
same,Trpv1+ neurons (% of all neurons),"[9]; 4 weeks, Mouse # 3",33.0%
same,body temperature change,[10],did not cause any changes in the body temperature
same,"body temperature change, systemic",[11],didn’t change body temperature
same,recruitment of immune cells,mouse hind paw skin,did not induce the recruitment
same,local inflammation of hind paw,mouse hind paw,no obvious local
C=C(C)[C@]12C[C@@H](C)[C@@]34O[C@](Cc5ccccc5)(O[C@@H]1[C@@H]3C=C(COC(=O)Cc1ccc(O)c(OC)c1)C[C@]1(O)C(=O)C(C)=C[C@@H]41)O2 [resiniferatoxin],cell death in TRPV1-expressing neurons,[1],induces cells death in TRPV1-expressing neurons
NCCOB(c1ccccc1)c1ccccc1 [2-APB],"normalized TRPV2 current, 2-APB alone",TRPV2,7.06 ± 2.25%
same,"normalized TRPV3 current, 2-APB alone",TRPV3,7.08 ± 3.57%

# Reference: article PMC9810691, “Structure-guided peptide engineering of a positive allosteric modulator targeting the outer pore of TRPV1 for long-lasting analgesia” (Nature Communications, 2023)
